Results on 21 molecules are retold here after patent publication US9738655B2, “Tetrahydroisoquinolines containing substituted azoles as factor XIa inhibitors” (BRISTOL-MYERS SQUIBB COMPANY, priority 2013, dated 2017).

pKi: −log10 of the molar value. Where a name gives a salt, the structure may show the parent alone. Read-outs that look alike come from different tables or passages of the source.

In assay [1] the target is purified human plasma kallikrein (Homo sapiens (Human), UniProt P03952). The experiment in a line: Plasma kallikrein enzyme inhibition assay (chromogenic substrate S-2302). The assay is classed as biochemical.
The target of assay [2] is purified human Factor XIa (Homo sapiens (Human), UniProt P03951). Briefly: Factor XIa enzyme inhibition assay (chromogenic substrate S-2366).
Where [3] appears, read: read-out: Factor XIa Ki, measured at 25° C.
Where [4] appears, read: measured at 25° C. (no asterisk).
[5] abbreviates: measured at 25° C. (no asterisk), TFA salt.
[6] abbreviates: read-out: Factor XIa Ki, measured at 25° C., TFA salt.

Chain of purified human Factor XIa (P03951 388-625): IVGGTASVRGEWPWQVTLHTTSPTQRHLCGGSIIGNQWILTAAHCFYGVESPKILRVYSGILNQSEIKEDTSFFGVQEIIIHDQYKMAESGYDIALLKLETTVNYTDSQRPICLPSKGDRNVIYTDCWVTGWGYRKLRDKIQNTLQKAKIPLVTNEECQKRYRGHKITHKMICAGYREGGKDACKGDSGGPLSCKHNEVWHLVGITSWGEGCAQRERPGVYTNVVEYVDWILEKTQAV
Chain of purified human Factor XIa (P03951 19-387 partner): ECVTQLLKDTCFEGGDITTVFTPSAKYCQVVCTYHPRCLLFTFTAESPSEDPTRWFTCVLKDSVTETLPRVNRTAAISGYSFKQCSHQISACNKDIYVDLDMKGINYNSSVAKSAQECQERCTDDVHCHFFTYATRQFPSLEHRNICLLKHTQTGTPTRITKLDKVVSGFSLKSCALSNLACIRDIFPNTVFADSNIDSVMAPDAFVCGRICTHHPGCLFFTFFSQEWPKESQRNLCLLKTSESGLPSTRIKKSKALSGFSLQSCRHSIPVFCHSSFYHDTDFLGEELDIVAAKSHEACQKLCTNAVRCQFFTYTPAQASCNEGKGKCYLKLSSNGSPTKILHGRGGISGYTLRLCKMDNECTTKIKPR
Chain of purified human plasma kallikrein (P03952 391-638): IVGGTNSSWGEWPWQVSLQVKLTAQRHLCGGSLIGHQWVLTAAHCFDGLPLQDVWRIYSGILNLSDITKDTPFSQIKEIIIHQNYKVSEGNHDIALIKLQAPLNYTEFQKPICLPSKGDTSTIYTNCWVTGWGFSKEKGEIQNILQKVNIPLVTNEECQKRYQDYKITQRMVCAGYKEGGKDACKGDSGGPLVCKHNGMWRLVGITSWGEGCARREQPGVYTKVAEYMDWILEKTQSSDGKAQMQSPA
Chain of purified human plasma kallikrein (P03952 20-390 partner): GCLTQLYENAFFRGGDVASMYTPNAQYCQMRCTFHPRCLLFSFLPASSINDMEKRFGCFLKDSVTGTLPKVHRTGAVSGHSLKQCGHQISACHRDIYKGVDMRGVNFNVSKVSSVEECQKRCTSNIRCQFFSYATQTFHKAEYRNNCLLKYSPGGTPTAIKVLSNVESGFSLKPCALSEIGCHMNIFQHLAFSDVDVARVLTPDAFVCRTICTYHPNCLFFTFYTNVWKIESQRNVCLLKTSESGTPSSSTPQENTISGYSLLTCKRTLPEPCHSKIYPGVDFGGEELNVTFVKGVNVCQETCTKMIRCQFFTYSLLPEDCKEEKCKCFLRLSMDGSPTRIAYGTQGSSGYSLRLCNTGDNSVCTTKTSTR

On to `CC1(COc2cccc3c2CCN(C(=O)c2cn(-c4cccc(Cl)c4F)nn2)C3C(=O)Nc2ccc(C(=O)O)cc2)COC1` (stereo not drawn) [Example 124, 4-(2-(1-(3-Chloro-2-fluorophenyl)-1H-1,2,3-triazole-4-carbonyl)-5-((3-methyloxetan-3-yl)methoxy)-1,2,3,4-tetrahydroisoquinoline-1-carboxamido)benzoic acid], for which the pKi in assay [1] (measured at 37° C. (*)) is 7.44; in assay [2] (setting [3]), more than 8.30.

With `CN(C)C1CCN(c2cccc3c2CCN(C(=O)c2cnn(-c4cccc(Cl)c4F)c2)C3C(=O)Nc2ccc(C(=O)O)cc2)CC1` (stereo not drawn) [Example 50, 4-(2-(1-(3-chloro-2-fluorophenyl)-1H-pyrazole-4-carbonyl)-5-(4-(dimethylamino)piperidin-1-yl)-1,2,3,4-tetrahydroisoquinoline-1-carboxamido)benzoic acid, bis-TFA salt], the pKi is 8.31 in assay [1] (setting [4]) and more than 8.30 in assay [2] (setting [3]).

On to `COC1CCN(c2cccc3c2CCN(C(=O)c2cnc(-c4cccc(Cl)c4F)s2)C3C(=O)Nc2ccc(C(=O)O)cc2)CC1` (racemic) [Example 270, 4-(2-(2-(3-chloro-2-fluorophenyl)thiazole-5-carbonyl)-5-(4-methoxypiperidin-1-yl)-1,2,3,4-tetrahydroisoquinoline-1-carboxamido)benzoic acid, TFA salt], for which the values for the negative logarithm of the Ki (pKi) in assay [1] (setting [4]) and in assay [2] were 6.57 and 7.69, respectively.

Regarding `CN(C)C1CCN(c2cccc3c2CCN(C(=O)c2cn(-c4cccc(Cl)c4F)nn2)[C@H]3C(=O)Nc2ccc(C(=O)O)cc2)CC1` [Example 48, (R)-4-(2-(1-(3-chloro-2-fluorophenyl)-1H-1,2,3-triazole-4-carbonyl)-5-(4-(dimethylamino)piperidin-1-yl)-1,2,3,4-tetrahydroisoquinoline-1-carboxamido)benzoic acid, bis-TFA salt], the results for the negative logarithm of the Ki (pKi) in assay [1] (setting [4]) and in assay [2] were 6.34 and 7.05, respectively.

`O=C(O)c1ccc(NC(=O)C2c3cccc(OC4CCNCC4)c3CCN2C(=O)c2cn(-c3cccc(Cl)c3F)nn2)cc1` (stereo not drawn) [Example 112, 4-(2-(1-(3-Chloro-2-fluorophenyl)-1H-1,2,3-triazole-4-carbonyl)-5-(piperidin-4-yloxy)-1,2,3,4-tetrahydroisoquinoline-1-carboxamido)benzoic acid, TFA salt]: the pKi in assay [1] (setting [4]) is 8.50; in assay [2] (setting [3]) it was more than 8.30.

For the molecule `CN1CCC2(CCN(c3cccc4c3CCN(C(=O)c3cn(-c5cccc(Cl)c5F)nn3)C4C(=O)Nc3ccc(C(=O)O)cc3)CC2)C1=O` (stereo not drawn) [Example 106, 4-(2-(1-(3-Chloro-2-fluorophenyl)-1H-1,2,3-triazole-4-carbonyl)-5-(2-methyl-1-oxo-2,8-diazaspiro[4.5]decan-8-yl)-1,2,3,4-tetrahydroisoquinoline-1-carboxamido)benzoic acid, TFA salt], the negative-log Ki (pKi) in assay [1] (setting [4]) was 8.12; in assay [2] (setting [3]), more than 8.30.

Turning to `Cc1nn(C)c2c1C(C(=O)Nc1ccc(C(=O)O)cc1)N(C(=O)c1cn(-c3cccc(Cl)c3F)nn1)CC2` (stereo not drawn) [Example 221, 4-(5-(1-(3-Chloro-2-fluorophenyl)-1H-1,2,3-triazole-4-carbonyl)-1,3-dimethyl-4,5,6,7-tetrahydro-1H-pyrazolo[4,3-c]pyridine-4-carboxamido)benzoic acid], the pKi was 8.02 in assay [1] (setting [4]) and 6.75 in assay [2] (setting [3]).

Regarding `COC(=O)c1ccc(NC(=O)[C@@H]2c3cccc(-c4cncnc4)c3CCN2C(=O)c2cn(-c3cccc(Cl)c3F)nn2)cc1` [Example 26, (S)-Methyl 4-(2-(1-(3-chloro-2-fluorophenyl)-1H-1,2,3-triazole-4-carbonyl)-5-(pyrimidin-5-yl)-1,2,3,4-tetrahydroisoquinoline-1-carboxamido)benzoate], the pKi in assay [1] (measured at 37° C. (*)) was 7.21; in assay [2] (setting [3]), 8.15.

With `COC(=O)c1ccc(NC(=O)[C@H]2c3cccc(-c4cncnc4)c3CCN2C(=O)c2cn(-c3cccc(Cl)c3F)nn2)cc1` [Example 25, (R)-Methyl 4-(2-(1-(3-chloro-2-fluorophenyl)-1H-1,2,3-triazole-4-carbonyl)-5-(pyrimidin-5-yl)-1,2,3,4-tetrahydroisoquinoline-1-carboxamido)benzoate], the negative logarithm of the Ki (pKi) is less than 5.36 in assay [1] (measured at 37° C. (*)) and 5.45 in assay [2] (setting [3]).

`O=C(O)c1ccc(NC(=O)C2c3cccc(-c4cn[nH]c4)c3CCN2C(=O)c2cn(-c3cccc(Cl)c3F)nn2)cc1` (stereo not drawn) [Example 41, 4-(2-(1-(3-chloro-2-fluorophenyl)-1H-1,2,3-triazole-4-carbonyl)-5-(1H-pyrazol-4-yl)-1,2,3,4-tetrahydroisoquinoline-1-carboxamido)benzoic acid]: the pKi in assay [1] (setting [4]) is 8.11; in assay [2], more than 8.30.

As for `CN1CCN(c2cccc3c2CCN(C(=O)C2CC(c4cccc(Cl)c4F)=NO2)C3C(=O)Nc2ccc(C(=O)O)cc2)CC1=O` (single isomer, unassigned) [Example 280, 4-(2-(3-(3-chloro-2-fluorophenyl)-4,5-dihydroisoxazole-5-carbonyl)-5-(4-methyl-3-oxopiperazin-1-yl)-1,2,3,4-tetrahydroisoquinoline-1-carboxamido)benzoic acid, TFA salt], the pKi in assay [1] (setting [5]) was 6.55; in assay [2] (setting [6]), 7.44.

Turning to `CN(C)C1CCN(c2cccc3c2CCN(C(=O)c2cnn(-c4cccc(Cl)c4F)c2)C3C(=O)Nc2ccc(OCC3CCCO3)cc2)CC1` (stereo not drawn) [Example 95, 2-(1-(3-chloro-2-fluorophenyl)-1H-pyrazole-4-carbonyl)-5-(4-(dimethylamino)piperidin-1-yl)-N-(4-((tetrahydrofuran-2-yl)methoxy)phenyl)-1,2,3,4-tetrahydroisoquinoline-1-carboxamide, TFA salt], the pKi is 7.77 in assay [1] (setting [4]) and 7.83 in assay [2] (setting [3]).

As to `COC1CCN(c2cccc3c2CCN(C(=O)C2(C)CC(c4cccc(Cl)c4F)=NO2)C3C(=O)Nc2ccc(C(=O)O)cc2)CC1` (stereo not drawn) [Example 267, 4-(2-(3-(3-chloro-2-fluorophenyl)-5-methyl-4,5-dihydroisoxazole-5-carbonyl)-5-(4-methoxypiperidin-1-yl)-1,2,3,4-tetrahydroisoquinoline-1-carboxamido)benzoic acid, TFA salt], the pKi in assay [1] (setting [5]) was 6.45; in assay [2] (setting [6]), 6.99.

As to `CC(C)c1nnc2n1CCN(c1cccc3c1CCN(C(=O)c1cn(-c4cccc(Cl)c4F)nn1)[C@@H]3C(=O)Nc1ccc(C(=O)O)cc1)C2` [Example 66, (S)-4-(2-(1-(3-chloro-2-fluorophenyl)-1H-1,2,3-triazole-4-carbonyl)-5-(3-isopropyl-5,6-dihydro-[1,2,4]triazolo[4,3-a]pyrazin-7(8H)-yl)-1,2,3,4-tetrahydroisoquinoline-1-carboxamido)benzoic acid, TFA salt], the negative-log Ki (pKi) was 8.59 in assay [1] (setting [4]) and more than 8.30 in assay [2] (setting [3]).

For the molecule `COC1CCN(c2cccc3c2CCN(C(=O)c2cc(-c4cccc(Cl)c4)n[nH]2)C3C(=O)Nc2ccc(C(=O)O)cc2)CC1` (racemic) [Example 311, 4-(2-(3-(3-chlorophenyl)-1H-pyrazole-5-carbonyl)-5-(4-methoxypiperidin-1-yl)-1,2,3,4-tetrahydroisoquinoline-1-carboxamido)benzoic acid, TFA salt], the figures for the pKi in assay [1] (setting [4]) and in assay [2] were 6.10 and 7.73, respectively.

In the case of `O=C(Nc1ccc(-c2ncc[nH]2)cc1)C1c2cccc(-c3cncnc3)c2CCN1C(=O)c1cn(-c2cccc(Cl)c2F)cn1` (stereo not drawn) [Example 137, N-(4-(1H-Imidazol-2-yl)phenyl)-2-(1-(3-chloro-2-fluorophenyl)-1H-imidazole-4-carbonyl)-5-(pyrimidin-5-yl)-1,2,3,4-tetrahydroisoquinoline-1-carboxamide, 2 TFA], the pKi was 7.27 in assay [1] (measured at 37° C. (*)) and more than 8.30 in assay [2] (setting [3]).

Consider `COC1CCN(c2cccc3c2CCN(C(=O)c2cnn(-c4cccc(Cl)c4F)c2C)C3C(=O)Nc2ccc(C(=O)O)cc2)CC1` (racemic) [Example 259, 4-(2-(1-(3-chloro-2-fluorophenyl)-5-methyl-1H-pyrazole-4-carbonyl)-5-(4-methoxypiperidin-1-yl)-1,2,3,4-tetrahydroisoquinoline-1-carboxamido)benzoic acid, TFA salt], for which the negative-log Ki (pKi) in assay [1] (setting [4]) was 7.11; in assay [2] it was more than 8.30.

Turning to `O=C(O)c1ccc(NC(=O)C2c3cccc(N4CCOCC4=O)c3CCN2C(=O)c2cn(-c3cccc(Cl)c3F)nn2)cc1` (stereo not drawn) [Example 69, 4-(2-(1-(3-chloro-2-fluorophenyl)-1H-1,2,3-triazole-4-carbonyl)-5-(3-oxomorpholino)-1,2,3,4-tetrahydroisoquinoline-1-carboxamido)benzoic acid], the pKi is 8.00 in assay [1] (setting [4]) and more than 8.30 in assay [2] (setting [3]).

Take `O=C(O)c1ccc(NC(=O)[C@@H]2c3cccc(N4CCC(N5CCCC5=O)CC4)c3CCN2C(=O)[C@H]2CC(c3cccc(Cl)c3F)=NO2)cc1` (single isomer, unassigned) [Example 207, TFA salt]: the negative-log Ki (pKi) in assay [1] (setting [4]) is 7.51; in assay [2], more than 8.30.

Take `CN1CCN(c2cccc3c2CCN(C(=O)C2CC(c4cccc(Cl)c4)=NO2)C3C(=O)Nc2ccc(C(=O)O)cc2)CC1` (stereo not drawn) [Example 217, 4-(2-(3-(3-chlorophenyl)-4,5-dihydroisoxazole-5-carbonyl)-5-(4-methylpiperazin-1-yl)-1,2,3,4-tetrahydroisoquinoline-1-carboxamido)benzoic acid, 2 TFA salt]: the figures for the negative logarithm of the Ki (pKi) in assay [1] (setting [4]) and in assay [2] (setting [3]) were 8.51 and 7.82, respectively.

For the molecule `O=C(O)c1ccc2cc(NC(=O)C3c4cccc(-c5cncnc5)c4CCN3C(=O)c3cn(-c4cccc(Cl)c4F)nn3)ccc2n1` (stereo not drawn) [Example 129, 6-(2-(1-(3-chloro-2-fluorophenyl)-1H-1,2,3-triazole-4-carbonyl)-5-(pyrimidin-5-yl)-1,2,3,4-tetrahydroisoquinoline-1-carboxamido) quinoline-2-carboxylic acid, TFA salt], the values for the negative-log Ki (pKi) in assay [1] (measured at 37° C. (*)) and in assay [2] (setting [3]) were 7.47 and more than 8.30, respectively.

By pKi is commonly meant the Ki on a negative log10 scale, so that one unit is a factor of ten.
